Data as given in patent publication US20070270484A1, “3'-N-Substituted-3-O-Substituted Erythronolide a Derivatives” (priority 2003, published 2007).
Converted amounts (≈) assume the structure as drawn.

Tests used:
MoraXella MI = assay: MIC, agar incorporation method (NCCLS agar dilution method); type: cell-based; details: 18-24 hours, 35±2° C.
Procedure: (§1) Drug dilutions and the agar plates are prepared by NCCLS method. Inoculum is prepared by direct colony suspensions in normal saline and adjusted to 0.5 McFarland turbidity and subsequently diluted as per NCCLS guidelines in order to obtain 10^4 CFU/spot. CFU/ml of a few randomly selected cultures is performed. The cultures are replicated on the agar plates using replicator (Denley's multipoint). The plates are incubated at 35±2° C. and in 5% CO2 atmosphere (for respiratory and Haemophilus strains) for 18-24 hours at 35±2° C. Minimum inhibitory concentrations (MIC) are determined after 18-24 hours. Q. C. strains are also included in each run of the study. The cation content of Mueller Hinton agar is checked by performing disk […] of 10 μg gentamicin disk against Pseudomonas aeroginosa ATCC 27853. The zone of inhibition should fall between 16-21 mm. The concentration of drug at which there is complete disappearance of growth spot or formation of less than 10 colonies per spot is considered as MIC.

S. pneum CS 1687 (mef) = assay: as above; type: cell-based, streptococcus pneumoniae; details: 18-24 hours, 35±2° C., 5% CO2, mef: efflux pump mef genes
Procedure: as §1

S. pneum 1251 (mef) = assay: as above; type: cell-based, streptococcus pneumoniae; details: 18-24 hours, 35±2° C., 5% CO2, mef: efflux pump mef genes
Procedure: as §1

S. pneum ATCC 49619 = assay: as above; type: cell-based, streptococcus pneumoniae; details: 35±2° C.; for Minimum Inhibitory Concentrations, S. pneum ATCC 49619: 18-24 hours, 5% CO2
Procedure: as §1

S. pneum ATCC 6303 = assay: as above; type: cell-based, streptococcus pneumoniae; details: 35±2° C.; for Minimum Inhibitory Concentrations, S. pneum ATCC 6303: 18-24 hours, 5% CO2
Procedure: as §1

S. pneum AB 34 (mef) = assay: as above; type: cell-based, streptococcus pneumoniae; details: 18-24 hours, 35±2° C., 5% CO2, mef: efflux pump mef genes
Procedure: as §1

S. pneum 1294 (mef) = assay: microbe, parasite or virus in culture; type: cell-based, streptococcus pneumoniae; details: agar dilution, 18-24 hours, 35±2° C., 5% CO2; mef: efflux pump mef genes
Procedure: as §1

S. pneum 1256 (erm) = assay: microbe, parasite or virus in culture; type: cell-based, streptococcus pneumoniae; details: agar dilution, 18-24 hours, 35±2° C., 5% CO2; erm: ribosomal modification (mutation) erm genes
Procedure: as §1

S. pneum 1275 (erm) = assay: microbe, parasite or virus in culture; type: cell-based, streptococcus pneumoniae; details: for Minimum Inhibitory Concentrations, S. pneum 1275 (erm): agar dilution, 18-24 hours, 35±2° C., 5% CO2, erm: ribosomal modification (mutation) erm genes
Procedure: as §1

S. pneum AB 14 (erm) = assay: microbe, parasite or virus in culture; type: cell-based, streptococcus pneumoniae; details: agar dilution, 18-24 hours, 35±2° C., 5% CO2; erm: ribosomal modification (mutation) erm genes
Procedure: as §1

S. pneum AB 29 (erm) = assay: microbe, parasite or virus in culture; type: cell-based, streptococcus pneumoniae; details: for Minimum Inhibitory Concentrations, S. pneum AB 29 (erm): agar dilution, 18-24 hours, 35±2° C., 5% CO2, erm: ribosomal modification (mutation) erm genes
Procedure: as §1

S. pneum AB 30 (erm) = assay: microbe, parasite or virus in culture; type: cell-based, streptococcus pneumoniae; details: for Minimum Inhibitory Concentrations, S. pneum AB 30 (erm): agar dilution, 18-24 hours, 35±2° C., 5% CO2, erm: ribosomal modification (mutation) erm genes
Procedure: as §1

H. inflenza ATCC 49247 = assay: MIC, agar incorporation method (NCCLS agar dilution method); type: cell-based, Haemophilus influenzae; details: for Minimum Inhibitory Concentrations, H. inflenza ATCC 49247: agar dilution, 18-24 hours, 35±2° C., 5% CO2
Procedure: Minimum inhibitory concentrations (μg/ml) were obtained for representative compounds of the invention, which are given in Table 2.
as §1

Compound	Minimum Inhibitory Concentrations, MoraXella MI (MoraXella MI)	Minimum Inhibitory Concentrations, S. pneum CS 1687 (mef) (S. pneum CS 1687 (mef))	Minimum Inhibitory Concentrations, S. pneum 1251 (mef) (S. pneum 1251 (mef))	Minimum Inhibitory Concentrations, S. pneum ATCC 49619 (S. pneum ATCC 49619)	Minimum Inhibitory Concentrations, S. pneum ATCC 6303 (S. pneum ATCC 6303)	Minimum Inhibitory Concentrations, S. pneum AB 34 (mef) (S. pneum AB 34 (mef))	Minimum Inhibitory Concentrations, S. pneum 1294 (mef) (S. pneum 1294 (mef))	Minimum Inhibitory Concentrations, S. pneum 1256 (erm) (S. pneum 1256 (erm))	Minimum Inhibitory Concentrations, S. pneum 1275 (erm) (S. pneum 1275 (erm))	Minimum Inhibitory Concentrations, S. pneum AB 14 (erm) (S. pneum AB 14 (erm))	Minimum Inhibitory Concentrations, S. pneum AB 29 (erm) (S. pneum AB 29 (erm))	Minimum Inhibitory Concentrations, S. pneum AB 30 (erm) (S. pneum AB 30 (erm))	Minimum Inhibitory Concentrations, H. inflenza ATCC 49247 (H. inflenza ATCC 49247)	other results
3-O-(4-Nitrophenyl)acetyl-5-O-(3′-N-desmethyl-3′-N-ethyl)desoaminyl-6-O-methyl erythronolide A [Compound No. 30]	4 µg/mL	1 µg/mL	1 µg/mL	1 µg/mL	1 µg/mL	>16 µg/mL	2 µg/mL	>16 µg/mL	>16 µg/mL	>16 µg/mL	<0.5 µg/mL	>16 µg/mL	>16 µg/mL	
CC[C@H]1OC(=O)[C@H](C)[C@@H](O[C@H]2C[C@@](C)(OC)[C@@H](O)[C@H](C)O2)[C@H](C)[C@@H](O[C@@H]2O[C@H](C)C[C@H](N(C)C)[C@H]2O)[C@](C)(O)C[C@@H](C)C(=O)[C@H](C)[C@@H](O)[C@]1(C)O [E, erythromycin A, reference compound]	0.06 µg/mL	>16 µg/mL	8 µg/mL	0.008 µg/mL	0.03 µg/mL	>16 µg/mL	>16 µg/mL	>16 µg/mL	>16 µg/mL	>16 µg/mL	>16 µg/mL	>16 µg/mL	>16 µg/mL	
CCC1OC(=O)C(C)C(OC(=O)Cc2ccc(F)cc2)C(C)C(OC2OC(C)CC(N(C)Cc3cccc(O)c3)C2O)C(C)(OC)CC(C)C(=O)C(C)C(O)C1(C)O (stereo not shown) [Compound No. 17, 3-O-(4-Fluorophenyl)acetyl-5-O-[3′-N-desmethyl-3′-N-(3-hydroxy)benzyl] desosaminyl-6-O-methyl erythronolide A]	8 µg/mL	1 µg/mL	1 µg/mL	<0.5 µg/mL	<0.5 µg/mL	>16 µg/mL	1 µg/mL	>16 µg/mL	>16 µg/mL	>16 µg/mL	<0.5 µg/mL	>16 µg/mL	>16 µg/mL	
CC[C@H]1OC(=O)[C@H](C)C(=O)[C@H](C)[C@@H](O[C@@H]2O[C@H](C)C[C@H](N(C)C)[C@H]2O)[C@](C)(OC)C[C@@H](C)C(=O)[C@H](C)[C@H]2N(CCCCn3cnc(-c4cccnc4)c3)C(=O)O[C@]12C [T, Telithromycin, reference compound]														MIC (MoraXella MI; Moraxella, read-out: Minimum Inhibitory Concentrations, MoraXella MI): 0.03 µg/mL (≈ 0.0369 µM); MIC (S. pneum CS 1687 (mef); Streptococcus pneumoniae, read-out: Minimum Inhibitory Concentrations, S. pneum CS 1687 (mef)): 0.125 µg/mL (≈ 0.154 µM); MIC (S. pneum 1251 (mef); Streptococcus pneumoniae, read-out: Minimum Inhibitory Concentrations, S. pneum 1251 (mef)): 0.5 µg/mL (≈ 0.616 µM); MIC (S. pneum ATCC 49619; Streptococcus pneumoniae, ATCC49619, 18-24 hours, 5% CO2, read-out: Minimum Inhibitory Concentrations, S. pneum ATCC 49619): 0.008 µg/mL (≈ 0.00985 µM); MIC (S. pneum ATCC 6303; Streptococcus pneumoniae, ATCC6303, 18-24 hours, 5% CO2, read-out: Minimum Inhibitory Concentrations, S. pneum ATCC 6303): 0.015 µg/mL (≈ 0.0185 µM); MIC (S. pneum AB 34 (mef); Streptococcus pneumoniae, read-out: Minimum Inhibitory Concentrations, S. pneum AB 34 (mef)): 0.125 µg/mL (≈ 0.154 µM); MIC (S. pneum 1275 (erm); Streptococcus pneumoniae, read-out: Minimum Inhibitory Concentrations, S. pneum 1275 (erm)): 0.008 µg/mL (≈ 0.00985 µM); MIC (S. pneum AB 29 (erm); Streptococcus pneumoniae, read-out: Minimum Inhibitory Concentrations, S. pneum AB 29 (erm)): 0.25 µg/mL (≈ 0.308 µM); MIC (S. pneum AB 30 (erm); Streptococcus pneumoniae, read-out: Minimum Inhibitory Concentrations, S. pneum AB 30 (erm)): 0.25 µg/mL (≈ 0.308 µM); MIC (H. inflenza ATCC 49247; Haemophilus influenzae, ATCC49247, read-out: Minimum Inhibitory Concentrations, H. inflenza ATCC 49247): 2 µg/mL (≈ 2.46 µM)
